# Read-outs that look alike come from different tables or passages of the source. No end group written: not given here.
# Tests used:
# P. aeruginosa = details: Table S7, cited from earlier work
# Protocol: (§1) page 13: Table S5. Experimentally measured molar extinction coefficients (ε) and absorbance maxima (λmax) for L1, L2 and L3 which concentration was determined by UV-Vis. Solvent HEPES buffer (50 mM. I = 0.16 M).Path length = 1 cm.T = 25°C. λmax [nm] ε [M-1cm-1] L1 275.5 1076 L2 280 1062 L3 275.5 1077 Table S6. Antimicrobial activity of the […] (L1), […] (L2) and […] (L3) and their metal(II) complexes against pathogenic microorganisms. Values are the average of three independent experiments performed in three wells. Ligands/ E. faecalis S. epidermidis E. coli ...
# E. coli = details: Table S7, cited from earlier work
# Protocol: as §1
# E. faecalis = details: Table S7, cited from earlier work
# Description: (§2) Values are the average of three independent experiments performed in three wells.
# C. albicans = system: C. albicans; set-up: method as in 2 sources, one per row (each row's own in cited_ref): ref [33] (a number printed in a supplementary file, which may have a reference list of its own: not looked up in the article's list) ||| ref [36] (a number printed in a supplementary file, which may have a reference list of its own: not looked up in the article's list); details: Table S7; ref [36]; cited from earlier work
# Description: as §2
# [1] = type: physicochemical
# Description: Distribution profiles for Cu(II) and Zn(II) complexes calculated based on titrations are depicted in Figure 1. Complexes of L1 with Zn(II) were precipitated in the experimental concentration used for potentiometry above pH 9, while for L2 and L3 complexes were insoluble above pH 7. For copper complexes, precipitation was not observed at any experimental pH value.
# Based on the experimental curves, it was possible to determine stability constants only for some complex species (ZnH3L and ZnHL for L2 and ZnH4L, ZnH3L and ZnHL for L3 ligand). […] Based on the competition diagram, Figure 3A, it could be assumed that all His residues are involved in the coordination of the Zn(II) ion directly or indirectly through the steric effect. The L3 ligand has the best affinity to metal ions already in an acidic environment and throughout the range of the tested pH. […] It could be concluded that although L1 and L2 have the same number of histidyl residues, their mutual position affects the effectiveness of metal ion binding at a given pH value. Above pH 6.5, L1 binds the Zn(II) with higher stability than that observed for L2.
# Zinc complexes were not soluble above pH 9 and 7 for L1 and L2, L3, respectively. It was surprising that upon contact with the […] n-octanol phase, Zn(II)/L1 complexes formed in the water were precipitated, which prevented further measurement of the partition coefficient logPo/w. This undoubtedly proves the hydrophilic nature of Zn (II)/L1 complexes. In the case of zinc complexes of the remaining ligands, no precipitate was observed, so experimental values of logPo/w were determined. In comparison to free ligands, the lipophilicity of Cu(II) complexes is lower for all studies’ systems. For L2 and L3, and their Zn(II) complex forms, we observed a slight difference in the partition coefficient concerning the ligands themselves, a slight decrease in lipophilicity in the case of Zn(II)/L2 complexes, and an increase in the case of Zn(II)/L3. […]
# S. epidermidis KCTC 1917 = type: cell-based, Staphylococcus epidermidis; details: KCTC 1917, 24 h
# Protocol: (§3) The antimicrobial properties of three peptides (L1, L2, L3) and metal(II) complexes (molar ratio, 1:1) were tested on human pathogenic strains. E. coli ATCC 25922, E. faecalis ATCC 29212, P. aeruginosa ATCC 15422, and S. epidermidis KCTC 1917 were grown at 37 °C in Luria Bertani Broth (LB; 10 g/L bacto-tryptone, 5 g/L bacto-yeast extract, 10 g/L NaCl). The C. albicans […] was grown in a 6.7 g/L yeast nitrogen base (YNB) broth (Difco Laboratories) containing 2% D-glucose at 37 °C. The minimum inhibitory concentration (MIC) values of the peptides and their metal(II) complexes were determined using the microdilution broth method in 96-well microplates (Sarstedt, Nümbrecht, Germany). The serial dilutions of tested compounds (0–500 µM) were dissolved in LB medium for bacteria and YNB medium for C. albicans. The inoculum (2.5 µL) of each strain (10^8 CFU mL^−1) was placed into each well containing 200 µL of serial dilutions of the tested peptides and their metal(II) complexes. […] Bacteria and C. albicans incubated with metal ions were used as additional controls. After 24 h of incubation at 37 °C, the optical density at 600 nm of each well was measured using a multifunctional microplate reader (Synergy™ H1, BioTek, Winooski, VT, USA).
# P. aeruginosa ATCC 15422 = type: cell-based, Pseudomonas aeruginosa; details: ATCC 15422, 24 h
# Protocol: as §3
# E. coli ATCC 25922 = type: cell-based, Escherichia coli; details: ATCC 25922, 24 h
# Protocol: as §3
# C. albicans ATCC 10231 = type: cell-based, Candida albicans; details: ATCC 10231, 24 h
# Protocol: as §3
# E. faecalis ATCC 29212 = type: cell-based, Enterococcus faecalis; details: ATCC 29212, 24 h
# Protocol: as §3
# [2] = molecular target: Lys1 (position 1, -----KSHFEL); assay: potentiometry; details: 25 ± 0.2 °C (298 K), I = 0.1 M (KCl), none (HCl/KOH titration under Ar)
# [3] = molecular target: His14 (position 14, YGLLAHQ----); assay: potentiometry; details: 25 ± 0.2 °C (298 K), I = 0.1 M (KCl), none (HCl/KOH titration under Ar)
# [4] = molecular target: Nterm1 (position 1, -----KSHFEL); assay: potentiometry; details: 25 ± 0.2 °C (298 K); I = 0.1 M (KCl); none (HCl/KOH titration under Ar); free peptide, no metal; ligand 1.0 × 10^-3 M (the Table 2 caption says 0.0005 M)
# [5] = molecular target: His3 (position 3, ---KSHFELPA); assay: potentiometry; details: 25 ± 0.2 °C (298 K); I = 0.1 M (KCl); none (HCl/KOH titration under Ar); free peptide, no metal; ligand 1.0 × 10^-3 M (the Table 2 caption says 0.0005 M)
# Tyr9 (position 9, …) [6] = assay: potentiometry; details: 25 ± 0.2 °C (298 K), I = 0.1 M (KCl), none (HCl/KOH titration under Ar)
# [7] = molecular target: His3 (position 3, ---KSHFELPH); assay: potentiometry; details: 25 ± 0.2 °C (298 K); I = 0.1 M (KCl); none (HCl/KOH titration under Ar); free peptide, no metal; ligand 1.0 × 10^-3 M (the Table 2 caption says 0.0005 M)
# His8 (position 8, …) [8] = assay: potentiometry; details: 25 ± 0.2 °C (298 K); I = 0.1 M (KCl); none (HCl/KOH titration under Ar); free peptide, no metal; ligand 1.0 × 10^-3 M (the Table 2 caption says 0.0005 M)
# Tyr9 (position 9, …) [9] = assay: potentiometry; details: 25 ± 0.2 °C (298 K), I = 0.1 M (KCl), none (HCl/KOH titration under Ar); remark: listed apart in the source
# [10] = molecular target: Nterm1 (position 1, -----KSAFEL); assay: potentiometry; details: 25 ± 0.2 °C (298 K); I = 0.1 M (KCl); none (HCl/KOH titration under Ar); free peptide, no metal; ligand 1.0 × 10^-3 M (the Table 2 caption says 0.0005 M)
# His8 (position 8, …) [11] = assay: potentiometry; details: 25 ± 0.2 °C (298 K); I = 0.1 M (KCl); none (HCl/KOH titration under Ar); free peptide, no metal; ligand 1.0 × 10^-3 M (the Table 2 caption says 0.0005 M); remark: listed apart in the source
# [12] = molecular target: Lys1 (position 1, -----KSAFEL); assay: potentiometry; details: 25 ± 0.2 °C (298 K), I = 0.1 M (KCl), none (HCl/KOH titration under Ar)
# [13] = Cu(II)-bound mononuclear complex (4N coordination), metal:ligand 1:1.1 and 1:2
# [14] = free peptide, no metal, ligand 1.0 × 10^-3 M (the Table 2 caption says 0.0005 M)
molecule,measurement,setting,value
O=C(O)c1cn(C2CC2)c2cc(N3CCNCC3)c(F)cc2c1=O [Ciprofloxacin],MIC,P. aeruginosa; ref [33],0.16 µg/mL
same,MIC,E. coli; ref [33],0.08 µg/mL
CNC(C)C1CCC(N)C(OC2C(N)CC(N)C(OC3OCC(C)(O)C(NC)C3O)C2O)O1 (stereo not shown) [Gentamicin],MIC,P. aeruginosa; ref [33],0.31 µg/mL
same,MIC,E. coli; ref [33],≥ 2.50 µg/mL
same,MIC,E. faecalis; ref [33],≥ 2.50 µg/mL
Clavanin B,MIC,E. coli; ref [36],256 µg/mL
same,MIC,E. faecalis; ref [36],256 µg/mL
same,MIC,C. albicans,64 µg/mL
Clavanin D,MIC,E. coli; ref [36],64 µg/mL
same,MIC,E. faecalis; ref [36],128 µg/mL
same,MIC,C. albicans,16 µg/mL
Gramicidin S,MIC,P. aeruginosa; ref [35],50 µg/mL
same,MIC,E. coli; ref [35],50 µg/mL
same,MIC,E. faecalis; ref [35],6.25 µg/mL
KSAFELPHYGLLAHQ [L1],solubility in water,[1],soluble in water
same,MIC,S. epidermidis KCTC 1917,132 ± 1.6 µM
same,MIC,P. aeruginosa ATCC 15422,285 ± 2.6 µM
same,MIC,E. coli ATCC 25922,412 ± 2.4 µM
same,MIC,C. albicans ATCC 10231,436 ± 2.4 µM
same,MIC,E. faecalis ATCC 29212,145 ± 3.1 µM
KSHFELPAYGLLAHQ [L2],solubility in water,[1],soluble in water
same,MIC,S. epidermidis KCTC 1917,147 ± 1.6 µM
same,MIC,P. aeruginosa ATCC 15422,302 ± 2.8 µM
same,MIC,E. coli ATCC 25922,416 ± 0.5 µM
same,MIC,C. albicans ATCC 10231,469 ± 1.4 µM
same,MIC,E. faecalis ATCC 29212,163 ± 2.2 µM
KSHFELPHYGLLAHQ [L3],solubility in water,[1],soluble in water
same,MIC,S. epidermidis KCTC 1917,210 ± 2.6 µM
same,MIC,P. aeruginosa ATCC 15422,313 ± 2.5 µM
same,MIC,E. coli ATCC 25922,> 888 µg/mL
same,MIC,C. albicans ATCC 10231,> 888 µg/mL
same,MIC,E. faecalis ATCC 29212,241 ± 1.6 µM
Polymyxin,MIC,P. aeruginosa; ref [34],1 µg/mL
same,MIC,E. coli; ref [34],1 µg/mL
same,MIC,E. faecalis; ref [34],> 16 µg/mL
KSHFELPAYGLLAHQ [MUC7 15-mer peptide analogue L2 (KSHFELPAYGLLAHQ) (Homo sapiens (synthetic peptide); H8A)],pKa,[2]; [13],10.06
same,pKa,[2]; [14],10.50
same,pKa,[3]; [13],6.46
same,pKa,[3]; [14],6.72
same,pKa,[4],7.42
same,pKa,[5],5.62
same,pKa,"Tyr9 (position 9, …) [6]; [13]",9.43
same,pKa,"Tyr9 (position 9, …) [6]; [14]",9.58
"KSHFELPHYGLLAHQ [MUC7 15-mer peptide L3 (KSHFELPHYGLLAHQ, mother peptide) (Homo sapiens (synthetic peptide))]",pKa,[7],5.40
same,pKa,[2]; [13],9.85
same,pKa,[2]; [14],10.01
same,pKa,[3]; [14],6.75
same,pKa,"His8 (position 8, …) [8]",6.34
same,pKa,[4],7.36
same,pKa,"Tyr9 (position 9, …) [9]; [13]",9.62
same,pKa,"Tyr9 (position 9, …) [9]; [14]",9.35
KSAFELPHYGLLAHQ [MUC7 15-mer peptide analogue L1 (KSAFELPHYGLLAHQ) (Homo sapiens (synthetic peptide); H3A)],pKa,[10],7.59
same,pKa,"His8 (position 8, …) [11]",5.98
same,pKa,[3]; [14],6.62
same,pKa,"Tyr9 (position 9, …) [9]; [13]",9.61
same,pKa,"Tyr9 (position 9, …) [9]; [14]",9.44
same,pKa,[12]; [13],10.86
same,pKa,[12]; [14],9.92

# Source: paper PMC8745124, “The Potential Antimicrobial Action of Human Mucin 7 15-Mer Peptide and Its Metal Complexes” (International Journal of Molecular Sciences, 2021)
